US11071300B2, “Pesticidally active pyrazole derivatives” (SYNGENTA PARTICIPATIONS AG, priority 2017, dated 2021)
Where two headings read alike, the source gives them in different places.

What was measured:
Format in all cases: in vivo
Thrips tabaci = Thrips tabaci (onion thrips) leaf disc test; details: foliar, 144 h, read-out: control (mortality)
Method: Thrips tabaci (Onion Thrips):
(§1) Sunflower leaf discs were placed on agar in 24-well microtiter plates and sprayed with aqueous test solutions prepared from 10′000 ppm DMSO stock solutions. After drying the leaf discs were infested with a thrips population of mixed ages. The samples were assessed for mortality 6 days after infestation.

Spodoptera littoralis = Spodoptera littoralis (Egyptian cotton leaf worm) leaf disc test; details: foliar, 72 h, application rate 200 ppm, cotton leaf discs sprayed, L1 larvae, 3 days after infestation, read-out: control (at least one of mortality, anti-feedant effect, growth inhibition)
Method: Spodoptera littoralis (Egyptian Cotton Leaf Worm)
Cotton leaf discs were placed on agar in 24-well microtiter plates and sprayed with aqueous test solutions prepared from 10′000 ppm DMSO stock solutions. After drying the leaf discs were infested with five L1 larvae. The samples were assessed for mortality, anti-feedant effect, and growth inhibition in comparison to untreated samples 3 days after infestation. Control of Spodoptera littoralis by a test sample is when at least one of mortality, anti-feedant effect, and growth inhibition is higher than the untreated sample.

Plutella xylostella = Plutella xylostella (diamond back moth) artificial diet test; details: 120 h, read-out: control (mortality and growth inhibition)
Method: Plutella xylostella (Diamond Back Moth):
(§2) 24-well microtiter plates with artificial diet were treated with aqueous test solutions prepared from 10′000 ppm DMSO stock solutions by pipetting. After drying, the plates were infested with L2 larvae (10 to 15 per well). The samples were assessed for mortality and growth inhibition in comparison to untreated samples 5 days after infestation.

Euschistus heros = Euschistus heros (neotropical brown stink bug) soybean leaf test; details: 120 h, read-out: control (mortality and growth inhibition)
Method: Euschistus heros (Neotropical Brown Stink Bug):
Soybean leaves on agar in 24-well microtiter plates were sprayed with aqueous test solutions prepared from 10′000 ppm DMSO stock solutions. After drying the leaves were infested with N2 nymphs. The samples were assessed for mortality and growth inhibition in comparison to untreated samples 5 days after infestation.

Diabrotica Balteata = assay: Diabrotica balteata (corn root worm) maize sprout test; details: 96 h, read-out: control (mortality and growth inhibition)
Method: Diabrotica Balteata, (Corn Root Worm)
as §2, with “Maize sprouts, placed on an agar layer in 24-well” for “24-well”, “plates” for “plates with artificial diet”, “spraying.” for “pipetting.”, “(6” for “(10”, “10” for “15”, “4” for “5”

Myzus persicae = Myzus persicae (green peach aphid) leaf disc test; details: foliar, 144 h, application rate 200 ppm, sunflower leaf discs sprayed, mixed ages, 6 DAT, read-out: control (mortality)
Method: Myzus persicae (Green Peach Aphid):
Sunflower leaf discs were placed on agar in a 24-well microtiter plate and sprayed with test solutions at an application rate of 200 ppm. After drying, the leaf discs were infested with an aphid population of mixed ages. After an incubation period of 6 DAT, samples were checked for mortality.

Tetranychus urticae = Tetranychus urticae (two-spotted spider mite) leaf disc test; details: foliar, 192 h, application rate 200 ppm, bean leaf discs sprayed, 8 days after infestation, read-out: control (mortality on mixed population, mobile stages)
Method: Tetranychus urticae (Two-Spotted Spider Mite):
as §1, with “Bean” for “Sunflower”, “discs” for “discs were placed”, “were” for “and”, “mite” for “thrips”, “on mixed population (mobile stages) 8” for “6”

[1] = application rate 200 ppm, sunflower leaf discs sprayed, mixed ages, 6 days after infestation
[2] = application rate 200 ppm, artificial diet, L2 larvae, 5 days after infestation
[3] = application rate 200 ppm, soybean leaves sprayed, N2 nymphs, 5 days after infestation
[4] = application rate 200 ppm, maize sprouts sprayed, L2 larvae, 4 days after infestation

COCN(C(=O)c1cc(-c2cnn(-c3c(C(F)(F)F)c(OS(=O)(=O)C(F)(C(F)(F)F)C(F)(F)F)nn3C)c2)ccc1Cl)C1(C#N)CC1 [Compound 48, [5-[4-[4-chloro-3-[(1-cyanocyclopropyl)-(methoxymethyl)carbamoyl]phenyl]pyrazol-1-yl]-1-methyl-4-(trifluoromethyl)pyrazol-3-yl] 1,1,1,2,3,3,3-heptafluoropropane-2-sulfonate]
≥ 80%: mortality at 200 ppm (Thrips tabaci; [1]) | percent control (mortality, anti-feedant effect or growth inhibition) at 200 ppm (Spodoptera littoralis) | mortality at 200 ppm (Plutella xylostella; [2]) | mortality at 200 ppm (Euschistus heros; [3]) | mortality at 200 ppm (Diabrotica Balteata; [4]) | mortality at 200 ppm (Myzus persicae) | mortality at 200 ppm (Tetranychus urticae)

CC(C)C(=O)N(C(=O)c1cc(-c2cnn(-c3c(C(F)(F)F)c(OS(=O)(=O)C(F)(C(F)(F)F)C(F)(F)F)nn3C)c2)ccc1Cl)C1(C#N)CC1 [Compound 60, [5-[4-[4-chloro-3-[(1-cyanocyclopropyl)-(2-methylpropanoyl)carbamoyl]phenyl]pyrazol-1-yl]-1-methyl-4-(trifluoromethyl)pyrazol-3-yl] 1,1,1,2,3,3,3-heptafluoropropane-2-sulfonate]
≥ 80%: mortality at 200 ppm (Thrips tabaci; [1]) | percent control (mortality, anti-feedant effect or growth inhibition) at 200 ppm (Spodoptera littoralis) | mortality at 200 ppm (Plutella xylostella; [2]) | mortality at 200 ppm (Euschistus heros; [3]) | mortality at 200 ppm (Diabrotica Balteata; [4]) | mortality at 200 ppm (Myzus persicae) | mortality at 200 ppm (Tetranychus urticae)

Cn1nc(OS(=O)(=O)C(F)(F)C(F)(F)F)c(C(F)(F)F)c1-n1cc(-c2ccc(Cl)c(C(=O)NC3(C#N)CC3)c2)cn1 [Compound 1, [5-[4-[4-chloro-3-[(1-cyanocyclopropyl)carbamoyl]phenyl]pyrazol-1-yl]-1-methyl-4-(trifluoromethyl)pyrazol-3-yl] 1,1,2,2,2-pentafluoroethanesulfonate]
≥ 80%: percent control (mortality, anti-feedant effect or growth inhibition) at 200 ppm (Spodoptera littoralis) | mortality at 200 ppm (Plutella xylostella; [2]) | mortality at 200 ppm (Euschistus heros; [3]) | mortality at 200 ppm (Diabrotica Balteata; [4]) | mortality at 200 ppm (Tetranychus urticae)

Cn1nc(OS(=O)(=O)C(F)(C(F)(F)F)C(F)(F)F)c(C(F)(F)F)c1-n1cc(-c2ccc(Cl)c(C(=O)NC3CC3)c2)cn1 [Compound 5, [5-[4-[4-chloro-3-(cyclopropylcarbamoyl)phenyl]pyrazol-1-yl]-1-methyl-4-(trifluoromethyl)pyrazol-3-yl] 1,1,1,2,3,3,3-heptafluoropropane-2-sulfonate]
≥ 80%: mortality at 200 ppm (Thrips tabaci; [1]) | percent control (mortality, anti-feedant effect or growth inhibition) at 200 ppm (Spodoptera littoralis) | mortality at 200 ppm (Plutella xylostella; [2]) | mortality at 200 ppm (Euschistus heros; [3]) | mortality at 200 ppm (Diabrotica Balteata; [4]) | mortality at 200 ppm (Myzus persicae) | mortality at 200 ppm (Tetranychus urticae)

COCC(=O)N(C(=O)c1cc(-c2cnn(-c3c(C(F)(F)F)c(OS(=O)(=O)C(F)(C(F)(F)F)C(F)(F)F)nn3C)c2)ccc1Cl)C1(C#N)CC1 [Compound 62, [5-[4-[4-chloro-3-[(1-cyanocyclopropyl)-(2-methoxyacetyl)carbamoyl]phenyl]pyrazol-1-yl]-1-methyl-4-(trifluoromethyl)pyrazol-3-yl] 1,1,1,2,3,3,3-heptafluoropropane-2-sulfonate]
≥ 80%: mortality at 200 ppm (Thrips tabaci; [1]) | percent control (mortality, anti-feedant effect or growth inhibition) at 200 ppm (Spodoptera littoralis) | mortality at 200 ppm (Plutella xylostella; [2]) | mortality at 200 ppm (Euschistus heros; [3]) | mortality at 200 ppm (Diabrotica Balteata; [4]) | mortality at 200 ppm (Myzus persicae) | mortality at 200 ppm (Tetranychus urticae)

CCN(C(=O)c1cc(-c2cc(-c3c(C(F)(F)F)c(OS(=O)(=O)C(F)(C(F)(F)F)C(F)(F)F)nn3C)no2)ccc1Cl)C1(C#N)CC1 [Compound 38, [5-[5-[4-chloro-3-[(1-cyanocyclopropyl)-ethyl-carbamoyl]phenyl]isoxazol-3-yl]-1-methyl-4-(trifluoromethyl)pyrazol-3-yl] 1,1,1,2,3,3,3-heptafluoropropane-2-sulfonate]
≥ 80%: percent control (mortality, anti-feedant effect or growth inhibition) at 200 ppm (Spodoptera littoralis) | mortality at 200 ppm (Plutella xylostella; [2]) | mortality at 200 ppm (Euschistus heros; [3]) | mortality at 200 ppm (Myzus persicae) | mortality at 200 ppm (Tetranychus urticae)

CCOCN(C(=O)c1cc(-c2cnn(-c3c(C(F)(F)F)c(OS(=O)(=O)C(F)(C(F)(F)F)C(F)(F)F)nn3C)c2)ccc1Cl)C1(C#N)CC1 [Compound 47, [5-[4-[4-chloro-3-[(1-cyanocyclopropyl)-(ethoxymethyl)carbamoyl]phenyl]pyrazol-1-yl]-1-methyl-4-(trifluoromethyl)pyrazol-3-yl] 1,1,1,2,3,3,3-heptafluoropropane-2-sulfonate]
≥ 80%: mortality at 200 ppm (Thrips tabaci; [1]) | percent control (mortality, anti-feedant effect or growth inhibition) at 200 ppm (Spodoptera littoralis) | mortality at 200 ppm (Plutella xylostella; [2]) | mortality at 200 ppm (Euschistus heros; [3]) | mortality at 200 ppm (Diabrotica Balteata; [4]) | mortality at 200 ppm (Myzus persicae)

Cn1nc(OS(=O)(=O)C(F)(C(F)(F)F)C(F)(F)F)c(C(F)(F)F)c1-n1cc(-c2ccc(Cl)c(C(=O)N[C@H]3C[C@@H]3C#N)c2)cn1 (racemic) [Compound 69, (rac)-[5-[4-[4-chloro-3-[[(1S,2S)-2-cyanocyclopropyl]carbamoyl]phenyl]pyrazol-1-yl]-1-methyl-4-(trifluoromethyl)pyrazol-3-yl] 1,1,1,2,3,3,3-heptafluoropropane-2-sulfonate]
≥ 80%: percent control (mortality, anti-feedant effect or growth inhibition) at 200 ppm (Spodoptera littoralis) | mortality at 200 ppm (Plutella xylostella; [2]) | mortality at 200 ppm (Euschistus heros; [3]) | mortality at 200 ppm (Myzus persicae) | mortality at 200 ppm (Tetranychus urticae)

CN(C(=O)c1cc(-c2cnn(-c3c(C(F)(F)F)c(OS(=O)(=O)C(F)(F)C(F)(F)C(F)(F)C(F)(F)F)nn3C)c2)ccc1Cl)C1(C#N)CC1 [Compound 6, [5-[4-[4-chloro-3-[(1-cyanocyclopropyl)-methyl-carbamoyl]phenyl]pyrazol-1-yl]-1-methyl-4-(trifluoromethyl)pyrazol-3-yl] 1,1,2,2,3,3,4,4,4-nonafluorobutane-1-sulfonate]
≥ 80%: mortality at 200 ppm (Thrips tabaci) | percent control (mortality, anti-feedant effect or growth inhibition) at 200 ppm (Spodoptera littoralis) | mortality at 200 ppm (Plutella xylostella) | mortality at 200 ppm (Euschistus heros) | mortality at 200 ppm (Diabrotica Balteata)

Cn1nc(OS(=O)(=O)C(F)(C(F)(F)F)C(F)(F)F)c(C(F)(F)F)c1-n1cc(-c2ccc(Cl)c(C(=O)NC3(C(F)(F)F)CC3)c2)cn1 [Compound 65, [5-[4-[4-chloro-3-[[1-(trifluoromethyl)cyclopropyl]carbamoyl]phenyl]pyrazol-1-yl]-1-methyl-4-(trifluoromethyl)pyrazol-3-yl] 1,1,1,2,3,3,3-heptafluoropropane-2-sulfonate]
≥ 80%: percent control (mortality, anti-feedant effect or growth inhibition) at 200 ppm (Spodoptera littoralis) | mortality at 200 ppm (Plutella xylostella; [2]) | mortality at 200 ppm (Euschistus heros; [3]) | mortality at 200 ppm (Tetranychus urticae)

Cn1nc(OS(=O)(=O)C(F)(C(F)(F)F)C(F)(F)F)c(C(F)(F)F)c1-n1cc(-c2ccc(Cl)c(C(=O)NC3(CC#N)CC3)c2)cn1 [Compound 68, [5-[4-[4-chloro-3-[[1-(cyanomethyl)cyclopropyl]carbamoyl]phenyl]pyrazol-1-yl]-1-methyl-4-(trifluoromethyl)pyrazol-3-yl] 1,1,1,2,3,3,3-heptafluoropropane-2-sulfonate]
≥ 80%: percent control (mortality, anti-feedant effect or growth inhibition) at 200 ppm (Spodoptera littoralis) | mortality at 200 ppm (Plutella xylostella; [2]) | mortality at 200 ppm (Euschistus heros; [3]) | mortality at 200 ppm (Tetranychus urticae)

CCN(C(=O)c1cc(-c2cnn(-c3c(C(F)(F)F)c(OS(=O)(=O)C(F)(F)C(F)(F)C(F)(F)C(F)(F)F)nn3C)c2)cnc1Cl)C1(C#N)CC1 [Compound 32, [5-[4-[6-chloro-5-[(1-cyanocyclopropyl)-ethyl-carbamoyl]-3-pyridyl]pyrazol-1-yl]-1-methyl-4-(trifluoromethyl)pyrazol-3-yl] 1,1,2,2,3,3,4,4,4-nonafluorobutane-1-sulfonate]
≥ 80%: mortality at 200 ppm (Thrips tabaci) | percent control (mortality, anti-feedant effect or growth inhibition) at 200 ppm (Spodoptera littoralis) | mortality at 200 ppm (Plutella xylostella) | mortality at 200 ppm (Euschistus heros) | mortality at 200 ppm (Diabrotica Balteata)
